Assay results taken from US9445979B2, “Hair treatment composition containing gambogic acid, ester or amide” (DSM IP ASSETS B.V., priority 2010, dated 2016).

Tests used:
Assay type in all cases: cell-based
[1] = system: human hair follicles; experiment: Hair shaft elongation, hair cycle progression and toxicity in cultured human anagen VI hair follicles
Method: (§1) Tissue containing human hair follicles in the growth stage (anagen) of the hair cycle were obtained from elective facial surgery interventions. Hair follicles were isolated and maintained in culture according to methods well established in the art (Philpott et al. 1990, J Cell Sci. 97: 463-471). Gambogic amide (GA) was administered to pigmented cultured anagen VI hair follicle every other day over a culture period of 7 days in various concentrations comprised between 10 nano molar and 1 micro molar and compared to a control group without addition of GA.
Hair shaft elongation was measured as a way to assess possible hair growth promoting or inhibiting effects of GA. […] It is therefore concluded from this first observation that the dose range in which GA can be used is between 10 nano molar and 1 micro molar, and that GA can be used as a hair growth promoting or restoring agent.

[2] = system: human hair follicles; experiment: Macroscopic analysis of hair follicle pigmentation in cultured anagen hair follicles; conditions: 0.1 to 1 micro molar GA, 7 day culture, versus control group
Method: as §1

[3] = system: melanocytes in human hair follicles; experiment: Immunohistochemical analysis of melanocytes in cultured hair follicles (NKI-beteb, Ki67, Trp2, cKit)
Source text: Number of melanocytes in the hair follicle can be evaluated by standard methods e.g.: immunohistochemical staining of the melanocytes with the pan-melanocyte marker NKI-beteb following by counting the NKI-beteb+ cells.
Differentiation and migration of melanocytes from the hair sheath to the hair matrix can be measured by immunohistochemical staining of c-kit+ melanocytes in the hair follicle, and by assessing their distribution within the hair follicle.
as §1
Immunohistochemical analysis of hair follicle was performed according to standard methods. Immunohistochemical staining of the pan-melanocyte marker NKI-beteb and the proliferation marker Ki67 was used to asses total number of melanocytes in cultured follicles in presence of GA. […] This increase was dose dependent. […]

CC(C)=CCC[C@]1(C)C=Cc2c(O)c3c(c(CC=C(C)C)c2O1)O[C@]12C(=C[C@@H]4C[C@H]1C(C)(C)O[C@@]2(C/C=C(/C)C(N)=O)C4=O)C3=O [GA, 2-Butenamide, 2-methyl-4-[(1R,3aS,5S,11R,14aS)-3a,4,5,7-tetrahydro-8-hydroxy-3,3,11-trimethyl-13-(3-methyl-2-buten-1-yl)-11-(4-methyl-3-penten-1-yl)-7,15-dioxo-1,5-methano-1H,3H,11H-furo[3,4-g]pyrano[3,2-b]xanthen-1-yl]-, (2Z)-]
signs of toxicity ([1]; concentrations as high as 1 micro): No signs of toxicity were observed | hair shaft elongation compared to control ([1]; concentrations between 0.1 and 1 micro molar, 7 days culture): increase in hair shaft elongation | hair cycle progression ([1]; with the application of GA, 7 days culture): no hair cycle progression was observed | hair follicle pigmentation (macroscopic analysis) [2]: clear and significant improvement of hair follicle pigmentation | total number of melanocytes (NKI-beteb and Ki67 staining) ([3]; between 0.1 and 0.5 micro molar, hair follicles that remained in the anagen stage): total number of melanocytes was increased | cKit labeling (marker for migrating, activated early melanocytes) ([3]; hair follicles treated between 0.1 and 1 micro molar GA): most pronouncedly found
